Data on two compounds can be found in article PMC7334220, “Diamond Blackfan anemia is mediated by hyperactive Nemo-like kinase” (Nature Communications, 2020).

A word on the IC50: it is the midpoint of a concentration-inhibition curve. What is called EC50 is the midpoint of the concentration-response curve.

One test addresses T1, NLK (Homo sapiens, UniProt Q9UBE8).
T1 construct: NLK, p38, or ALK5 for in vitro kinase assays were immunopurified from Kp53A1 cells; endogenous in cells; immunoprecipitated with anti-NLK (Abcam AB97642)
T1 sequence (Q9UBE8 1-527): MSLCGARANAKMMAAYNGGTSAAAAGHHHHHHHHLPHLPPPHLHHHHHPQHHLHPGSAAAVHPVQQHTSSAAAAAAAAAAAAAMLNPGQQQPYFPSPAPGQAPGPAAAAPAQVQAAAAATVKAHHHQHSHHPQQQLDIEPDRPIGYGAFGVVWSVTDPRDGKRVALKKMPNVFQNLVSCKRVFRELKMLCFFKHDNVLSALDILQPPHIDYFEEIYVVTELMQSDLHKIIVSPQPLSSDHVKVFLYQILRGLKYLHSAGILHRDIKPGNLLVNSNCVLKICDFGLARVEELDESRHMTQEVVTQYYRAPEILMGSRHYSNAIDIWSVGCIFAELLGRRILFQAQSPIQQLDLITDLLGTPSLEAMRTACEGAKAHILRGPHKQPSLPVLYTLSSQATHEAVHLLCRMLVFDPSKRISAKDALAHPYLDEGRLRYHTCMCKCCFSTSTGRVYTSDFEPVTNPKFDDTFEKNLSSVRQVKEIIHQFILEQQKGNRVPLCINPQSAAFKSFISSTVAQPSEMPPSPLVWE
Briefly: NLK in vitro kinase assay (NLK, c-Myb, Raptor substrates). The format is biochemical. Conditions: for inhibition of NLK-mediated phosphorylation of NLK substrates NLK, c-Myb and Raptor: added to activated NLK in vitro, Supplementary Fig. 1c. Here is the method: Equivalent protein was loaded between samples. b—blue Transduced progenitors were differentiated for 15 days and sorted for surface expression of CD235 + , CD41 + and CD11b + population NLK mRNA was assessed by qRT-PCR. c Control and shRPS19-transduced CB progenitors were differentiated for 10 days prior to separation into CD71^+ and CD71^- populations and assessed for pThr298-NLK phosphorylation by Western blot analysis. d—purple CB CD34 + progenitors were transduced with shRNA against luciferase (shLuc) or RPS19 (shRPS19) along with CFP-NLK and YFP-NLK and differentiated for 10 days. NLK dimerization was quantified by FRET. e—left panel NLK was immunoprecipitated from transduced differentiating CD71^+ and CD71^- populations after 10 days, and incubated in the presence of ATP, Mg^2+ and dephosphorylated NLK (i orange), c-Myb (ii—blue) and Raptor (iii—green) for 30 min at 37 °C. Phosphorylation was detected by a combination of anti^-phosphoserine-HRP and anti-phosphothreonine-HRP antibodies, or mouse anti-phosphoserine and anti-mouse-HRP antibodies. e—right panel For comparison, NLK in vitro kinase activity was assessed from CD235^+, CD41^+ and CD11b^+ populations enriched after identical treatments. f A panel of eight small molecule p38 inhibitors were titrated into in vitro kinase assays in the presence of activated NLK or p38 from stimulated Kp53A1 cells. The IC50 for NLK and p38 for each compound was calculated. The data are represented diagrammatically with IC50 values represented as vertical lines along a concentration gradient for NLK and p38. Kinase activity is represented as blue and the extent of inhibition is depicted in white. […] Bars represent means ± SD with individual data points overlaid. n = 3 independent experiments performed in triplicate.Statistics: two-tailed Student’s t test, significant *p < 0.05. Also see Supplementary Figs. 3 and 4. Source data are provided as a Source Data file. […] Inhibitors were added to cells at indicated concentrations with a final DMSO concentration of 0.5%. […] IC50 calculations were obtained using 8–9 concentrations of compound and generated using the IC50 Calculator software by AAT Bioquest®. NLK, p38, or ALK5 for in vitro kinase assays were immunopurified from Kp53A1 cells. NLK activation was induced by incubating cells at 32° for 24-48 h, p38 by stimulating with IL-3, IL-6, SCF, and Epo at the same concentrations used for differentiating erythroid progenitors.
For NLK kinase analysis, cultures were treated as indicated and lysed for 30 min at 4 °C in 750 μl of kinase lysis buffer (50 mM Tris [pH 7.4], 5 mM EDTA, 250 mM NaCl, 0.1% Triton X-100, 50 mM NaF, 0.1 trypsin inhibitor unit of aprotinin per ml, 50 μg of phenylmethylsulfonyl fluoride per ml, 100 μM sodium vanadate, 1 μg of leupeptin per ml). For TGFβR1 kinase analysis, cells were lysed in membrane kinase buffer (10 mM Tris-HCl (pH8.0), 140 mM NaCl, 300 mM KCl, 0.5% Triton X-100, and 0.5% sodium deoxycholate with complete protease inhibitor cocktail (Roche)). Extracts were clarified, and equivalent protein was incubated overnight at 4 °C with antibody (NLK: #AB97642; Abcam, TGFβR1: V22; Santa Cruz Biotechnology). Immune complexes were collected with Catch and Release® V2.0 Reversible Immunoprecipitation System and diluted in kinase buffer (25 mM Tris [pH 7.4], 10 mM MgCl2, 1 mM dithiothreitol). When cell numbers were limiting, NLK activity was amplified by adding 0.5 µg dephosphorylated NLK prior to performing kinase reaction. 50 μl of kinase buffer containing NLK or TGFβR1 sample and 5 μM ATP was incubated in the presence of biotinylated substrate (NLK, c-Myb, or Raptor for NLK and Smad2 or Smad3 for TGFβR1) immobilized on streptavidin-coated 96-well plates.

For test [1], the system named is RPS19-insufficient Lin-Kit+ progenitors from mouse embryonic (E14.5–E15.5) fetal livers. The test can be described thus: c-Kit+ erythroid expansion rescue in murine RPS19-insufficient progenitors (Cell titer-Glo). The format is cell-based. Conditions: for rescue of c-Kit+ erythroid expansion: 10 µM, murine RPS19-insufficient model, Fig. 1b; for EC50: Mus musculus, read-out: EC50 of improved erythroid growth. Here is the method:
Cells were plated at 2000 cell per well in 96-well plates in the presence or absence of doxycycline. Relative amounts of live cells were quantified by luciferase-based Cell titer-Glo® assay. b TGFβR1 inhibitors were assessed for their ability to increase cell expansion in RPS19-insuffiency. As a control, vehicle alone (no doxycycline) is represented at the far left while all other samples were treated with doxycycline to induce RPS19-insufficiency. c Kit^+ erythroid progenitors were grown in the absence of doxycycline and in the presence of 10 µM of indicated compound. In addition, cells were treated with 5 ng/ml of TGFβ1 for 5 days before being subjected to Cell titer-Glo® assay. d Differentiating cord blood CD34^+ progenitors were transduced with shRNA against luciferase or RPS19 and treated with inhibitors at working concentrations for TGFβ inhibition every three days. […] Cells were counted and CD235^+ erythroid (i and iii) and CD11b^+ myeloid cell (ii and iv) percentages were determined by flow cytometry. The number of erythroid or myeloid cells is expressed as a percentage of the number of that lineage with no cytokine or drug treatment. Bars represent means ± SD with individual data points overlaid. n = 3 independent experiments performed in triplicate. Statistics: two-tailed Student’s t test, significant *p < 0.05. Also see Supplementary Fig. 1. Erythroid expansion is depicted in red while myeloid is in purple. Source data are provided as a Source Data file.
(1 picture or pasted object on this page, not shown here)
For orientation: ATP-based viability assays read luminescence as a measure of living cells.

A further test deals with p38. Conditions: reported, no reference given; read-out: reported IC50 against p38; cited from earlier work.

Where two headings read alike, the source gives them in different places.

With `NC(=O)c1ccc(-c2nc(-c3ccc4c(c3)OCO4)c(-c3ccccn3)[nH]2)cc1` [SB431542], the IC50 is 1070 nM at NLK (Supplementary Fig. 1e, read-out: IC50 against NLK) and 9000 nM in the test with p38. The “inhibition of NLK-mediated phosphorylation of NLK substrates NLK, c-Myb and Raptor” value on NLK is given as 55%. Also, in test [1], the “rescue of c-Kit+ erythroid expansion” value is “significantly rescued”. For the same compound, the EC50 in test [1] (murine RPS19-insufficient cells, Supplementary Fig. 1a) is 5000 nM.
In the case of `Fc1ccc(Cl)cc1-c1nc(Nc2ccncc2)c2nccnc2n1` [SD208], at NLK, the IC50 is 435 nM; the “inhibition of NLK-mediated phosphorylation of NLK substrates NLK, c-Myb and Raptor” value is listed as ~ 80%. Further, the “SD208 concentration at which NLK activation was significantly inhibited in in vitro assays” value on NLK (rebuttal letter) is listed as “below 0.1 uM”. Moreover, in test [1], the “rescue of c-Kit+ erythroid expansion” value is listed as “significantly rescued” and the EC50 was determined as 700 nM. For the same compound, in the test on p38, the half-maximal inhibitory concentration (IC50) is 850 nM.
